ChEMBL document CHEMBL4507282, “Data for DCP probe BI-1950” (2021)

Key:
[1] = target: ALK tyrosine kinase receptor (Homo sapiens) (UniProt Q9UM73); details: Compound concentration 1000.0 nM
[2] = target: Tyrosine-protein kinase receptor UFO (Homo sapiens) (UniProt P30530); details: Compound concentration 1000.0 nM
[3] = target: Serine/threonine-protein kinase B-raf (Homo sapiens) (UniProt P15056); details: Compound concentration 1000.0 nM
[4] = target: Protein-tyrosine kinase 6 (Homo sapiens) (UniProt Q13882); details: Compound concentration 1000.0 nM
[5] = target: Calcium/calmodulin-dependent protein kinase type 1B (Homo sapiens) (UniProt Q6P2M8); details: Compound concentration 1000.0 nM
[6] = target: Calcium/calmodulin-dependent protein kinase type II subunit gamma (Homo sapiens) (UniProt Q13555); details: Compound concentration 1000.0 nM
[7] = target: Cyclin-dependent kinase 5 (Homo sapiens) (UniProt Q00535); details: Compound concentration 1000.0 nM
[8] = target: Cyclin-dependent kinase 7 (Homo sapiens) (UniProt P50613); details: Compound concentration 1000.0 nM
[9] = target: Serine/threonine-protein kinase Chk2 (Homo sapiens) (UniProt O96017); details: Compound concentration 1000.0 nM
[10] = target: Casein kinase II subunit alpha' (Homo sapiens) (UniProt P19784); details: Compound concentration 1000.0 nM
[11] = test system: Epidermal growth factor receptor (Homo sapiens), P00533 [UNDEFINED MUTATION]; details: Compound concentration 1000.0 nM
[12] = target: Mitogen-activated protein kinase 1 (Homo sapiens) (UniProt P28482); details: Compound concentration 1000.0 nM
Mitogen-activated protein kinase 1 (Homo sapiens), sequence (P28482 whole entry): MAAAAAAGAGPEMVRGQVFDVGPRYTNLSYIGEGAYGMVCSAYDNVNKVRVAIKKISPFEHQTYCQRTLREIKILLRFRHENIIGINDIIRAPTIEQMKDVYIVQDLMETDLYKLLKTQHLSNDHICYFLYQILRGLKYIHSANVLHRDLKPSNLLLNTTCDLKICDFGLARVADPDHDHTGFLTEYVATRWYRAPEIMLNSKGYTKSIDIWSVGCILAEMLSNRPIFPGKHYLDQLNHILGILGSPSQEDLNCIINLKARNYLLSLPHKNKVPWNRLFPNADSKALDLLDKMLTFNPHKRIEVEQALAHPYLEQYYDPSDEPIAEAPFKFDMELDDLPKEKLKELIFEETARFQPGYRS

[13] = test system: Receptor-type tyrosine-protein kinase FLT3 (Homo sapiens), P36888 [D835Y]; details: Compound concentration 1000.0 nM
[14] = test system: Receptor-type tyrosine-protein kinase FLT3 (Homo sapiens), P36888 [UNDEFINED MUTATION]; details: Compound concentration 1000.0 nM
[15] = target: Cyclin-G-associated kinase (Homo sapiens) (UniProt O14976); details: Compound concentration 1000.0 nM
[16] = target: Serine/threonine-protein kinase haspin (Homo sapiens) (UniProt Q8TF76); details: Compound concentration 1000.0 nM
[17] = target: Homeodomain-interacting protein kinase 1 (Homo sapiens) (UniProt Q86Z02); details: Compound concentration 1000.0 nM
[18] = target: Homeodomain-interacting protein kinase 4 (Homo sapiens) (UniProt Q8NE63); details: Compound concentration 1000.0 nM
[19] = target: Interleukin-1 receptor-associated kinase 3 (Homo sapiens) (UniProt Q9Y616); details: Compound concentration 1000.0 nM
[20] = target: Tyrosine-protein kinase ITK/TSK (Homo sapiens) (UniProt Q08881); details: Compound concentration 1000.0 nM
[21] = target: Mast/stem cell growth factor receptor Kit (Homo sapiens) (UniProt P10721); details: Compound concentration 1000.0 nM
[22] = target: Mitogen-activated protein kinase kinase kinase 15 (Homo sapiens) (UniProt Q6ZN16); details: Compound concentration 1000.0 nM
[23] = target: Serine/threonine-protein kinase MARK2 (Homo sapiens) (UniProt Q7KZI7); details: Compound concentration 1000.0 nM
[24] = target: MAP/microtubule affinity-regulating kinase 3 (Homo sapiens) (UniProt P27448); details: Compound concentration 1000.0 nM
[25] = target: Misshapen-like kinase 1 (Homo sapiens) (UniProt Q8N4C8); details: Compound concentration 1000.0 nM
[26] = target: Mitogen-activated protein kinase kinase kinase 10 (Homo sapiens) (UniProt Q02779); details: Compound concentration 1000.0 nM
[27] = target: Serine/threonine-protein kinase MRCK alpha (Homo sapiens) (UniProt Q5VT25); details: Compound concentration 1000.0 nM
[28] = target: Macrophage-stimulating protein receptor (Homo sapiens) (UniProt Q04912); details: Compound concentration 1000.0 nM
Macrophage-stimulating protein receptor (Homo sapiens), sequence (Q04912 25-304 limits assumed): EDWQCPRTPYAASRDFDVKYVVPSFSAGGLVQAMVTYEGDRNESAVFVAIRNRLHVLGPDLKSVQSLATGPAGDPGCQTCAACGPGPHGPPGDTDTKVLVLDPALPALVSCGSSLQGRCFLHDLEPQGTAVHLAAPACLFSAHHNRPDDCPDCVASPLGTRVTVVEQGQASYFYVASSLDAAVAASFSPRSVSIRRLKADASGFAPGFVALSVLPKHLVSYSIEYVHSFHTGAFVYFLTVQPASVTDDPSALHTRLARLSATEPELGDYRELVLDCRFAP
Macrophage-stimulating protein receptor (Homo sapiens), sequence (Q04912 310-1400 limits assumed): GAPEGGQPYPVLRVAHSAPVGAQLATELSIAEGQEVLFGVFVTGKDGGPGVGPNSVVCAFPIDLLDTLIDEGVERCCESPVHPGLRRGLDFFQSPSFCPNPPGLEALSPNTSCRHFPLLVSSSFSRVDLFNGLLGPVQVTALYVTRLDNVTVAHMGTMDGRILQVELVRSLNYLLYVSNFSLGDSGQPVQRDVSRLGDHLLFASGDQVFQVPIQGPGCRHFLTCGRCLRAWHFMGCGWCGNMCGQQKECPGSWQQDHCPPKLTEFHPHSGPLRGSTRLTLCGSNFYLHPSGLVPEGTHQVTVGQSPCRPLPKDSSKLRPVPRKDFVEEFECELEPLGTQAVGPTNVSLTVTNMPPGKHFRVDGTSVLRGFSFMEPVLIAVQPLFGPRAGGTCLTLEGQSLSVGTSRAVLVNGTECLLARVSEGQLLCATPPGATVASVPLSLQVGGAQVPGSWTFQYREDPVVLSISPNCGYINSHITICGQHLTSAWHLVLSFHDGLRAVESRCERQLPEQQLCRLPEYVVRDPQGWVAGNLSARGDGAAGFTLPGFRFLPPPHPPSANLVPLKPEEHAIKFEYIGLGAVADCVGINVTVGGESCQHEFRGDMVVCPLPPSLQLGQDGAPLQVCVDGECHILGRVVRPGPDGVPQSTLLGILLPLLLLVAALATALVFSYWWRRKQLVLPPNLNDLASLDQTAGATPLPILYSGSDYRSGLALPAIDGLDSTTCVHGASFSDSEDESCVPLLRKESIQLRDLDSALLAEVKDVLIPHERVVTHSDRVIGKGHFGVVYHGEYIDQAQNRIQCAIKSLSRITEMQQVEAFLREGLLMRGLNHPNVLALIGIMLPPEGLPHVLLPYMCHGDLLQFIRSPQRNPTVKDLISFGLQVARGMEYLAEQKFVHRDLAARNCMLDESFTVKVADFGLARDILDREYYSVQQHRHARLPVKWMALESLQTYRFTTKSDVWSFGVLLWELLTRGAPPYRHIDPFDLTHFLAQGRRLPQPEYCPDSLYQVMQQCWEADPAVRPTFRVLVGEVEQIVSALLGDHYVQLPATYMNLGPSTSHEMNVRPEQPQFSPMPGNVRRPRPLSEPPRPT

[29] = target: Myosin light chain kinase family member 4 (Homo sapiens) (UniProt Q86YV6); details: Compound concentration 1000.0 nM
[30] = target: Serine/threonine-protein kinase PAK 6 (Homo sapiens) (UniProt Q9NQU5); details: Compound concentration 1000.0 nM
[31] = target: 3-phosphoinositide-dependent protein kinase 1 (Homo sapiens) (UniProt O15530); details: Compound concentration 1000.0 nM
[32] = target: Serine/threonine-protein kinase pim-3 (Homo sapiens) (UniProt Q86V86); details: Compound concentration 1000.0 nM
[33] = target: Serine/threonine-protein kinase N1 (Homo sapiens) (UniProt Q16512); details: Compound concentration 1000.0 nM
Serine/threonine-protein kinase N1 (Homo sapiens), sequence (Q16512 2-942 limits assumed): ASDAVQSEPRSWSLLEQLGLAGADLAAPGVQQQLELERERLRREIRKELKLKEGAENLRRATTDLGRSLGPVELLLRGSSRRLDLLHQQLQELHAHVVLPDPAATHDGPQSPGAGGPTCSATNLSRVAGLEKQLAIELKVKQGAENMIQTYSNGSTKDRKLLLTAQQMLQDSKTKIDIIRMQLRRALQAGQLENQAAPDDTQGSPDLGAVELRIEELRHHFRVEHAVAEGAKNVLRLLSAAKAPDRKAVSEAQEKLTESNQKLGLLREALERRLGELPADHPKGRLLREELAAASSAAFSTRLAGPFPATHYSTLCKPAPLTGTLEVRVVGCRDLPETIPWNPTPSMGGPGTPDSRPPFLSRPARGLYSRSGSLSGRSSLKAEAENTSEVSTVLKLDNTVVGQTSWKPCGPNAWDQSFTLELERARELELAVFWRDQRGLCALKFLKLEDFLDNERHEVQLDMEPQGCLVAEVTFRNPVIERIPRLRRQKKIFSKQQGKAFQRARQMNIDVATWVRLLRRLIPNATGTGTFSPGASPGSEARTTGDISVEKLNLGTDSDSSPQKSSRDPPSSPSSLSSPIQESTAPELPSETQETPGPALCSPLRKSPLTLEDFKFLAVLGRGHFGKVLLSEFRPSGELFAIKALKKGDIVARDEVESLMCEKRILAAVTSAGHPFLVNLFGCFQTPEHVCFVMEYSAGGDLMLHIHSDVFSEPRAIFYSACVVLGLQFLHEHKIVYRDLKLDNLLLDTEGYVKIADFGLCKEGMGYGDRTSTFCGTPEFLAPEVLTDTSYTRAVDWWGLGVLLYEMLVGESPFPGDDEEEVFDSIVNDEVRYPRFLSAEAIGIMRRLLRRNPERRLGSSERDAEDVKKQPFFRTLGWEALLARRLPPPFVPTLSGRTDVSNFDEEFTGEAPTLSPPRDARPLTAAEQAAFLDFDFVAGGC

[34] = target: cGMP-dependent protein kinase 1 (Homo sapiens) (UniProt Q13976); details: Compound concentration 1000.0 nM
cGMP-dependent protein kinase 1 (Homo sapiens), sequence (Q13976 whole entry): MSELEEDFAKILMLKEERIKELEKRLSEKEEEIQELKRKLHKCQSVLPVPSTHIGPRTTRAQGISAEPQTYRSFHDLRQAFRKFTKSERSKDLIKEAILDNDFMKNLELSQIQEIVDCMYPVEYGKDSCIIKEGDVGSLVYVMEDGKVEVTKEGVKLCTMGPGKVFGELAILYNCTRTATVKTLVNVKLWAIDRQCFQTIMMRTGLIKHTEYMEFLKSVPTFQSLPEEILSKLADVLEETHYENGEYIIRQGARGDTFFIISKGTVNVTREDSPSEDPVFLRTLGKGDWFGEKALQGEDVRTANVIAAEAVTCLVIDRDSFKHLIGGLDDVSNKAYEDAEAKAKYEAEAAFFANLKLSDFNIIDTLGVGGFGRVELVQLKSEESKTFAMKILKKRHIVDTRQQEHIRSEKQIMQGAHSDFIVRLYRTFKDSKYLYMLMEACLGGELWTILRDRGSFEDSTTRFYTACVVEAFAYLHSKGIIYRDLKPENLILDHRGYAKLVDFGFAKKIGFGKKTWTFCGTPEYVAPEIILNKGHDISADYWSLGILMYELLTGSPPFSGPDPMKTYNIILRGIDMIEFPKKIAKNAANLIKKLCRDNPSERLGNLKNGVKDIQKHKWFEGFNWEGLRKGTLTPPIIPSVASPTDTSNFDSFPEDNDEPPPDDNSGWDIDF

[35] = target: Serine/threonine-protein kinase PRP4 homolog (Homo sapiens) (UniProt Q13523); details: Compound concentration 1000.0 nM
[36] = target: Serine/threonine-protein kinase SIK3 (Homo sapiens) (UniProt Q9Y2K2); details: Compound concentration 1000.0 nM
[37] = target: Serine/threonine-protein kinase Sgk3 (Homo sapiens) (UniProt Q96BR1); details: Compound concentration 1000.0 nM
[38] = target: STE20-like serine/threonine-protein kinase (Homo sapiens) (UniProt Q9H2G2); details: Compound concentration 1000.0 nM
[39] = target: Serine/threonine-protein kinase TAO1 (Homo sapiens) (UniProt Q7L7X3); details: Compound concentration 1000.0 nM
[40] = target: Testis-specific serine/threonine-protein kinase 3 (Homo sapiens) (UniProt Q96PN8); details: Compound concentration 1000.0 nM
[41] = target: Serine/threonine-protein kinase ULK3 (Homo sapiens) (UniProt Q6PHR2); details: Compound concentration 1000.0 nM
[42] = target: Wee1-like protein kinase 2 (Homo sapiens) (UniProt P0C1S8); details: Compound concentration 1000.0 nM
[43] = target: D(1B) dopamine receptor (Homo sapiens) (UniProt P21918); details: Compound concentration 10.0 uM
[44] = target: Histamine H4 receptor (Homo sapiens) (UniProt Q9H3N8); details: Compound concentration 10.0 uM
[45] = target: Muscarinic acetylcholine receptor M4 (Homo sapiens) (UniProt P08173); details: Compound concentration 10.0 uM

ALK tyrosine kinase receptor (Homo sapiens), sequence (Q9UM73 19-1620 limits assumed): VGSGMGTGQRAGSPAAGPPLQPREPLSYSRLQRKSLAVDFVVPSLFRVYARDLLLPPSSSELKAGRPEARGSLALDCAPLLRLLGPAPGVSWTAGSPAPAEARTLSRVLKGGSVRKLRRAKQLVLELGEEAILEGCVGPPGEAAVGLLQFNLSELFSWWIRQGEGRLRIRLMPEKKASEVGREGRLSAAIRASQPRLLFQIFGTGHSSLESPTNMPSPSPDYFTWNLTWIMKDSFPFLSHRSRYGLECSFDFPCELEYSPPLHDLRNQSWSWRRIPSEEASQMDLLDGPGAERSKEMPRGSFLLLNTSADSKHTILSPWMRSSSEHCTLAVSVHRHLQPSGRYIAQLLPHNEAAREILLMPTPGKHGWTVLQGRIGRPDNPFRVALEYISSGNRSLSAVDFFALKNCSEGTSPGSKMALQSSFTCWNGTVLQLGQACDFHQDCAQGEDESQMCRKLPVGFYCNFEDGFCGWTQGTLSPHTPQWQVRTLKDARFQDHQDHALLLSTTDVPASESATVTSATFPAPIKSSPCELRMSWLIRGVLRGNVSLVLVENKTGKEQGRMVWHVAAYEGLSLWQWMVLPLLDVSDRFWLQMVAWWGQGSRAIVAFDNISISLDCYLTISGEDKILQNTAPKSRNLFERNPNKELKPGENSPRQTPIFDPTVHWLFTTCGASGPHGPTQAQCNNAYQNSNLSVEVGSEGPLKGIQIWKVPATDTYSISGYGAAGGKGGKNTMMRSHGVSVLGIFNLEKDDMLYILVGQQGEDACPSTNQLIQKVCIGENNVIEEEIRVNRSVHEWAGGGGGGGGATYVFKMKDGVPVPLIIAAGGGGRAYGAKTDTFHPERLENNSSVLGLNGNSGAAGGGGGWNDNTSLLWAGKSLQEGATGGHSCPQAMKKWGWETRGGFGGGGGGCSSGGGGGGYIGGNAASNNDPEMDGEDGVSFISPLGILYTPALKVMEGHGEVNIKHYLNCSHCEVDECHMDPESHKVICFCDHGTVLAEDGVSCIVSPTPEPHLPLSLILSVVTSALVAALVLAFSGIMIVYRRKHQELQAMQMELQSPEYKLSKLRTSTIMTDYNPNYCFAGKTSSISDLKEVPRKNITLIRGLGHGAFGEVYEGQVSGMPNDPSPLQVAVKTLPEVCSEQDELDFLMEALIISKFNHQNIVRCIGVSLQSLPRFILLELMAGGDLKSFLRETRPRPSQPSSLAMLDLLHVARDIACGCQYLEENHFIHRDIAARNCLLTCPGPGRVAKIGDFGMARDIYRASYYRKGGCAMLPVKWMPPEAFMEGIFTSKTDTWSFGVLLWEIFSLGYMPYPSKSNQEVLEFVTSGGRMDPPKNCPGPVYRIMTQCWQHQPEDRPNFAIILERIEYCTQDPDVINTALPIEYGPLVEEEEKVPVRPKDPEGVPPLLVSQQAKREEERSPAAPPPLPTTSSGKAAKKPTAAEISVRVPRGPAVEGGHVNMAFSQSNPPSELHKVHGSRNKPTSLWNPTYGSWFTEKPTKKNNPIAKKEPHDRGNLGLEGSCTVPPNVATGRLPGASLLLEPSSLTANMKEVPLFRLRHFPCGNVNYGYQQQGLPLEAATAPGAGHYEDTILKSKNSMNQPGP

C[C@@]1(Cc2ccc(C#N)cc2)C(=O)N(c2cc(Cl)cc(Cl)c2)c2ncc(C(=O)NC3(c4nc(C5CCC5)no4)CC3)n21 [BI 9446]
inactive: residual activity [1] 100% | residual activity [2] 100% | residual activity [3] 100% | residual activity [4] 100% | residual activity [5] 65% | residual activity [6] 100% | residual activity [7] 100% | residual activity [8] 100% | residual activity [9] 100% | residual activity [10] 100% | residual activity [11] 58% | residual activity [12] 100% | residual activity [13] 100% | residual activity [14] 100% | residual activity [15] 100% | residual activity [16] 100% | residual activity [17] 100% | residual activity [18] 100% | residual activity [19] 100% | residual activity [20] 92% | residual activity [21] 98% | residual activity [22] 81% | residual activity [23] 85% | residual activity [24] 100% | residual activity [25] 100% | residual activity [26] 100% | residual activity [27] 100% | residual activity [28] 100% | residual activity [29] 100% | residual activity [30] 100% | residual activity [31] 100% | residual activity [32] 100% | residual activity [33] 100% | residual activity [34] 100% | residual activity [35] 91% | residual activity [36] 98% | residual activity [37] 100% | residual activity [38] 100% | residual activity [39] 97% | residual activity [40] 100% | residual activity [41] 100% | residual activity [42] 100% | inhibition [43] 7.21% | inhibition [44] 27.6% | inhibition [45] 21.6%

C[C@H](NC(=O)c1cnc2n1[C@](C)(Cc1ccc(C#N)cc1)C(=O)N2c1cc(Cl)c(F)c(Cl)c1)C(=O)NC1(c2ccccn2)CC1 [BI 1950]
inactive: residual activity [1] 100% | residual activity [2] 100% | residual activity [3] 100% | residual activity [4] 92% | residual activity [5] 83% | residual activity [6] 100% | residual activity [7] 100% | residual activity [8] 94% | residual activity [9] 100% | residual activity [10] 99% | residual activity [11] 82% | residual activity [12] 100% | residual activity [13] 100% | residual activity [14] 100% | residual activity [15] 92% | residual activity [16] 100% | residual activity [17] 97% | residual activity [18] 100% | residual activity [19] 100% | residual activity [20] 83% | residual activity [21] 91% | residual activity [22] 76% | residual activity [23] 100% | residual activity [24] 92% | residual activity [25] 100% | residual activity [26] 100% | residual activity [27] 100% | residual activity [28] 100% | residual activity [29] 100% | residual activity [30] 96% | residual activity [31] 100% | residual activity [32] 100% | residual activity [33] 100% | residual activity [34] 62% | residual activity [35] 77% | residual activity [36] 76% | residual activity [37] 100% | residual activity [38] 100% | residual activity [39] 86% | residual activity [40] 100% | residual activity [41] 100% | residual activity [42] 100% | inhibition [43] 14% | inhibition [44] 9.55% | inhibition [45] 12.1%
